Reference: patent publication US20060166867A1, “Novel conjugates of polysaccharides and uses thereof” (priority 2003, published 2006)
Converted amounts (≈) assume the structure as drawn. “And” between values parts separate entries of the source, which are not always exact repeats. Equal entries are not always repeated. Where two headings read alike, the source gives them in different places.

Assays:
[1] = system: Streptococcus bovis ATCC 9809; assay: MIC, broth microdilution; format: cell-based; settings: Gram positive reference strain
Procedure: Minimal Inhibition Concentration (MIC) measurements: The Minimal Inhibitory Concentration (MIC) was generally determined by the Broth Microdilution method (based on the protocol described in Clinical and Laboratory Standard Institute (CLSI) NCCLS (2003) M7-A6), as follows:
A stock solution of each of the tested compounds was prepared by diluting the compound to a 2,560 μg/ml concentration with an appropriate solvent. The stock solution was then serially 2-fold diluted in 96-well microdilution trays using Cation-Adjusted Mueller-Hinton Broth (CAMHB) until reaching the desired range of concentrations, whereas each well contained double the final working concentration. Each row further had one growth control well (medium+inoculum only), and one sterility control well (medium+tested compound). Plates were stored at −70° C. until used.
The tested microorganisms were used as fresh overnight cultures on blood agar (for gram-positive organisms) or MacConkey agar (for gram-negatives). A standardized inoculum suspension was prepared by the direct colony suspension method, using sterile saline (equivalent to a 0.5 McFarland standard).
Thus, 50 μl of the inoculum suspension were added to each tested well (except for the sterility control well), and […] was performed during 18-24 hours (depending on the tested microorganism or compound) at 35° C.

E. Coli-ESBL positive [2] = settings: Gram negative clinical isolate
S. aureus MRSA [3] = settings: Gram positive clinical isolate
Enterobacter cloacae [4] = settings: Gram negative clinical isolate
[5] = system: A. baumannii-amikacin^s, meropenem^s; settings: Gram negative clinical isolate
[6] = system: Staphylococcus aureus ATCC 24213; settings: Gram positive reference strain
[7] = system: P. aeruginosa-gentamicin^s, meropenem^s; settings: Gram negative clinical isolate
S. epidermidis MSSE = settings: Gram positive clinical isolate
[8] = system: P. aeruginosa-gentamicin^r, meropenem^r; settings: Gram negative clinical isolate
[9] = system: K. pneumoniae-ESBL negative; settings: Gram negative clinical isolate
Serratia marcescens = settings: Gram negative clinical isolate
[10] = system: Enterococcus faecalis ATCC 29212; settings: Gram positive reference strain
[11] = system: Enterococcus faecalis B84939-vancomycin^r; assay: MIC, broth microdilution; format: cell-based; settings: Enterococcus faecalis; Gram positive clinical isolate; read-out: Minimum Inhibitory Concentration
E. Coli-ESBL positive [12] = assay: microbe, parasite or virus in culture; settings: Escherichia coli, read-out: Minimum Inhibitory Concentration
Enterobacter cloacae [13] = assay: microbe, parasite or virus in culture; settings: read-out: Minimum Inhibitory Concentration
S. epidermidis MRSE = assay: microbe, parasite or virus in culture; settings: Staphylococcus epidermidis, read-out: Minimum Inhibitory Concentration
[14] = system: P. aeruginosa-gentamicin^r, meropenem^r; assay: microbe, parasite or virus in culture; settings: Pseudomonas aeruginosa, read-out: Minimum Inhibitory Concentration
[15] = system: K. pneumoniae-ESBL positive; assay: microbe, parasite or virus in culture; settings: Klebsiella pneumoniae, read-out: Minimum Inhibitory Concentration
[16] = system: K. pneumoniae-ESBL negative; assay: microbe, parasite or virus in culture; settings: Klebsiella pneumoniae, read-out: Minimum Inhibitory Concentration
P. aeruginosa R17093 = assay: MIC, broth microdilution; format: cell-based, Pseudomonas aeruginosa; settings: Gram negative clinical isolate, read-out: Minimum Inhibitory Concentration
S. epidermidis B32954 = assay: MIC, broth microdilution; format: cell-based, Staphylococcus epidermidis; settings: Staphylococcus epidermidis, B32954; Gram positive clinical isolate; read-out: Minimum Inhibitory Concentration
A. baumannii R16998 = assay: microbe, parasite or virus in culture; settings: Acinetobacter baumannii, R16998, read-out: Minimum Inhibitory Concentration
[17] = system: Escherichia coli ATCC 25922; assay: microbe, parasite or virus in culture; settings: ATCC25922, read-out: Minimum Inhibitory Concentration
[18] = system: Moraxella catarrhalis ATCC 25238 (Branhamella); assay: microbe, parasite or virus in culture; settings: ATCC25238, read-out: Minimum Inhibitory Concentration
[19] = system: Acinetobacter baumannii ATCC 19606; assay: microbe, parasite or virus in culture; settings: ATCC19606, read-out: Minimum Inhibitory Concentration
[20] = system: A. baumannii-amikacin^s, meropenem^s; assay: microbe, parasite or virus in culture; settings: Acinetobacter baumannii, read-out: Minimum Inhibitory Concentration
[21] = system: Proteus mirabilis ATCC 7002; assay: microbe, parasite or virus in culture; settings: ATCC7002, read-out: Minimum Inhibitory Concentration
Strep. Pyogenes (gr. A) = assay: MIC, broth microdilution; format: cell-based; settings: Streptococcus pyogenes; Gram positive clinical isolate; read-out: Minimum Inhibitory Concentration
[22] = system: Enterococcus faecium (clinical isolate); assay: MIC, broth microdilution; format: cell-based; settings: Gram positive clinical isolate; for MIC: read-out: Minimum Inhibitory Concentration
E. coli U23773^r = assay: microbe, parasite or virus in culture; settings: Escherichia coli, read-out: Minimum Inhibitory Concentration
S. aureus MRSA [23] = assay: microbe, parasite or virus in culture; settings: Staphylococcus aureus, read-out: Minimum Inhibitory Concentration

CC(=O)N[C@H](CCCNC(=N)N)C(=O)N[C@H](CCCNC(=N)N)C(=O)N[C@H](CCCNC(=N)N)C(=O)N[C@H](CCCNC(=N)N)C(=O)N[C@H](CCCNC(=N)N)C(=O)N[C@H](CCCNC(=N)N)C(=O)N[C@H](CCCNC(=N)N)C(=O)N[C@H](CCCNC(=N)N)C(=O)N[C@H](CCCNC(=N)N)C(=O)O [Compound 12, D-Arg-9-mer-NHAc]
Minimum Inhibitory Concentration [1]: 128.0 mg/L | Minimum Inhibitory Concentration (E. Coli-ESBL positive [2]): 64.0 mg/liter and 31.91 μM | Minimum Inhibitory Concentration (S. aureus MRSA [3]): > 128.0 mg/liter and 63.82 μM | Minimum Inhibitory Concentration (Enterobacter cloacae [4]): 128.0 mg/liter and 63.82 μM | Minimum Inhibitory Concentration [5]: 256.0 mg/liter and 127.64 μM | Minimum Inhibitory Concentration [6]: 128.0 mg/liter and 63.82 μM | Minimum Inhibitory Concentration [7]: > 256.0 mg/liter and 127.64 μM | Minimum Inhibitory Concentration (S. epidermidis MSSE): 8.0 mg/liter and 3.99 μM | Minimum Inhibitory Concentration [8]: > 256.0 mg/liter and 127.64 μM | Minimum Inhibitory Concentration [9]: 256.0 mg/liter and 127.64 μM | Minimum Inhibitory Concentration (Serratia marcescens): > 256.0 mg/liter and 127.64 μM | Minimum Inhibitory Concentration [10]: 64.0 mg/liter and 31.91 μM

NCC1OC(OC2C(CO)OC(OC3C(O)C(N)CC(N)C3OC3OC(CN)C(O)C(O)C3N)C2O)C(N)C(O)C1O (stereo not shown) [Neomycin]
MIC [11]: 64 µg/mL and 70.4 µM | MIC (E. Coli-ESBL positive [12]): 4 µg/mL and 4.4 µM | MIC (Enterobacter cloacae [13]): 4 µg/mL and 4.4 µM | MIC (S. epidermidis MRSE): 0.5 µg/mL and 0.55 µM | MIC [14]: 128 µg/mL and 141 µM | MIC [15]: 1.5 µg/mL and 1.65 µM | MIC [16]: 0.7 µg/mL and 0.77 µM | MIC (P. aeruginosa R17093): 211.22 µM (≈ 130 µg/mL) | MIC (P. aeruginosa R17093; Pseudomonas aeruginosa, R17093): 211 µM and 192 µg/mL | MIC (S. epidermidis B32954): 0.5 µg/mL and 0.55 µM | MIC (A. baumannii R16998): 32 µg/mL and 35.2 µM | MIC [17]: 1 µg/mL and 1.1 µM | MIC [18]: 0.25 µg/mL and 0.28 µM | MIC [19]: 6 µg/mL and 6.6 µM | MIC [20]: 3 µg/mL and 3.3 µM | MIC [21]: 1.5 µg/mL and 1.65 µM | MIC (Strep. Pyogenes (gr. A)): 16 µg/mL and 17.6 µM | MIC ([22]; Enterococcus faecium): 256 µg/mL and 282 µM | MIC (E. coli U23773^r): 141 µM and 128 µg/mL | MIC (S. aureus MRSA [23]): 1 µg/mL and 1.1 µM

D-Arg-9-mer-neomycin [Compound 14]
Minimum Inhibitory Concentration [1]: 24.0 mg/L | Minimum Inhibitory Concentration (E. Coli-ESBL positive [2]): 24.0 mg/liter and 8.27 μM | Minimum Inhibitory Concentration (S. aureus MRSA [3]): 32.0 mg/liter and 11.02 μM | Minimum Inhibitory Concentration (Enterobacter cloacae [4]): 64.0 mg/liter and 22.05 μM | Minimum Inhibitory Concentration [5]: 128.0 mg/liter and 44.11 μM | Minimum Inhibitory Concentration [6]: 32.0 mg/liter and 11.02 μM | Minimum Inhibitory Concentration [7]: > 256.0 mg/liter and 88.22 μM | Minimum Inhibitory Concentration (S. epidermidis MSSE): 0.52 µM | Minimum Inhibitory Concentration [8]: > 156.0 mg/liter and 53.76 μM | Minimum Inhibitory Concentration [9]: 64.0 mg/liter and 22.05 μM | Minimum Inhibitory Concentration (Serratia marcescens): 64.0 mg/liter and 22.05 μM | Minimum Inhibitory Concentration [22]: 24.0 mg/L | MIC [22]: 8.27 µM | Minimum Inhibitory Concentration [10]: 128.0 mg/liter and 44.11 μM
